# Results published in patent publication US20240294518A1, “NITROGEN-CONTAINING HETEROCYCLIC COMPOUND” (Evopoint Biosciences Co., Ltd., priority 2021, published 2024).
# pIC50: −log10 of the molar value.
# Molecular target: HPK1 kinase (Homo sapiens, UniProt Q92918)
# Test: HPK1 kinase inhibition assay, ADP-Glo platform
# Format: biochemical
# Settings: 0.3 nM HPK1, 5 μM ATP, 0.05 mg/mL MBP
# Procedure: The compounds to be tested were each dissolved in 100% DMSO, with the mother liquor concentration being 10 mM. The liquor was 3-fold diluted at a test starting concentration of 10 μM to yield ten data points, with two replicates set for each point.
# The inhibition of the activity of HPK1 kinase by the compound was assayed using an ADP-Glo™ platform. The reaction was performed in a 384-well plate containing 0.3 nM HPK1, 5 μM ATP, 0.05 mg/mL MBP, 0-10 μM compound, and 1% DMSO per well. The reaction buffer was as follows: 50 mM HEPES, 10 mM MgCl2, 1 mM EGTA, 1 mM DTT, 0.01% Brij 35, pH=7.5. The compound and the kinase were incubated at 25° C. for 15 min, and a substrate and ATP were added to initiate the reaction. After 1 h of reaction at 25° C., the ADP-Glo™ reagent was added, and the reaction was terminated, followed by incubation at 25° C. for 1 h. The kinase detection reagent was added, and after 1 h of incubation at 25° C., the chemiluminescence signal was detected. Based on this reading, inhibition percentage was calculated, and IC50 for the compound was calculated using four-parameter fitting.
# Sequence of HPK1 kinase (Q92918 whole entry): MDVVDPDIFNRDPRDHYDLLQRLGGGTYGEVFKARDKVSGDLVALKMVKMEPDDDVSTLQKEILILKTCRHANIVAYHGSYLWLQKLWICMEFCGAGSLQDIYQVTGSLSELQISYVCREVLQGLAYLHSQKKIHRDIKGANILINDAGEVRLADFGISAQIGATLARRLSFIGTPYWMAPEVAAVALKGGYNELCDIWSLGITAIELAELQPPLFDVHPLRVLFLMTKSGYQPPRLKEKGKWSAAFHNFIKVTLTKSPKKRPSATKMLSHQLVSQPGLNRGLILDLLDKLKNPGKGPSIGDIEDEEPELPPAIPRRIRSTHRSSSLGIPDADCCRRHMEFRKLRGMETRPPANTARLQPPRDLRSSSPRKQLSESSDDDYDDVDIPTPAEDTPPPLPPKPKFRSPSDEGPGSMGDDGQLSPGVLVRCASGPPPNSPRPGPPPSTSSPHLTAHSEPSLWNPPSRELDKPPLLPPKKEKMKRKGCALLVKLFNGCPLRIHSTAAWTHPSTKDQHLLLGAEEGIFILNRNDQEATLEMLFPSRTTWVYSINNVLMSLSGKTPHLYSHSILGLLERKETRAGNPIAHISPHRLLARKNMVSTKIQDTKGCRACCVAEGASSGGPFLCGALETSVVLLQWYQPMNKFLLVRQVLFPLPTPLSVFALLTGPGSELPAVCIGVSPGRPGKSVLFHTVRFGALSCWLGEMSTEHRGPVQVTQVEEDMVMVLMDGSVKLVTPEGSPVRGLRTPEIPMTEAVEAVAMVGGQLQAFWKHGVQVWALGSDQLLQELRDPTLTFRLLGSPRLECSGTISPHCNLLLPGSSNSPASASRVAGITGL
row,pIC50,SMILES
1,8.00 to 8.30,Cc1c[nH]c2ncc(-c3ccc(C4CCOCC4)c(C4COCCN4)c3)c(F)c12 (stereo not drawn) [Compound A-3]
2,8.30 to 11.00,c1nc2[nH]cc(C3CC3)c2cc1-c1ccc(C2CCOCC2)c(CN2CCCC2)n1 [Compound A-22]
3,7.00 to 8.00,Clc1c[nH]c2ncc(-c3ccc(C4CCOCC4)c([C@H]4COCCN4)n3)cc12 [Compound A-19]
4,8.30 to 11.00,Cc1c[nH]c2ncc(-c3cc(O)c(C4CCOCC4)c(C4COCCN4)c3)cc12 (stereo not drawn) [Compound A-39]
5,8.00 to 8.30,Cc1cc(-c2cnc3[nH]cc(C(F)(F)F)c3c2)cc([C@H]2COCCN2)c1C1CCOCC1 [Compound A-32]
6,8.30 to 11.00,c1nc2[nH]cc(C3CC3)c2cc1-c1ccc(C2CCOCC2)c([C@@H]2COCCN2)n1 [Compound A-15]
7,8.30 to 11.00,Cc1cc(-c2cnc3[nH]cc(C(F)(F)F)c3c2)cc([C@@H]2COCCN2)c1C1CCOCC1 [Compound A-33]
8,7.00 to 8.00,c1nc2[nH]cc(C3CC3)c2cc1-c1ccc(C2CCOCC2)c([C@H]2COCCN2)n1 [Compound A-16]
9,8.30 to 11.00,COc1cc(-c2cnc3[nH]cc(C(F)(F)F)c3c2)cc([C@@H]2COCCN2)c1C1CCOCC1 [Compound A-34]
10,8.30 to 11.00,FC(F)(F)C1(c2c[nH]c3ncc(-c4ccc(C5CCOCC5)c([C@@H]5COCCN5)n4)cc23)CC1 [Compound A-30]
11,8.00 to 8.30,Cc1c[nH]c2ncc(-c3cc(Cl)c(C4=CCOCC4)c(C4COCCN4)c3)cc12 (stereo not drawn) [Compound A-13]
12,7.00 to 8.00,Cc1c[nH]c2ncc(-c3ccc(C4CCOCC4)c(CN4CCCC4)n3)cc12 [Compound A-26]
13,8.30 to 11.00,"CN(C)C(=O)C#Cc1c[nH]c2ncc(-c3ccc(C4CCOCC4)c(C4COCCN4)c3)cc12 (single isomer, unassigned) [Compound A-14]"
14,8.30 to 11.00,C[C@@H]1CCCN1Cc1nc(-c2cnc3[nH]cc(C4CC4)c3c2)ccc1C1CCOCC1 [Compound A-25]
15,8.00 to 8.30,OCc1c[nH]c2ncc(-c3ccc(C4CCOCC4)c(C4COCCN4)n3)cc12 (stereo not drawn) [Compound A-21]
16,7.00 to 8.00,Cc1c[nH]c2ncc(-c3ccc(C4CCOCC4)c(C4COCCN4)n3)c(F)c12 (stereo not drawn) [Compound A-7]
17,8.30 to 11.00,Cc1c[nH]c2ncc(-c3cc(Cl)c(C4CCOCC4)c(C4COCCN4)c3)cc12 (stereo not drawn) [Compound A-6]

row,pIC50,SMILES
1,7.00 to 8.00,COc1cc(-c2cnc3[nH]cc(C(F)(F)F)c3c2)cc([C@H]2COCCN2)c1C1CCOCC1 [Compound A-35]
2,8.30 to 11.00,Clc1c[nH]c2ncc(-c3ccc(C4CCOCC4)c([C@@H]4COCCN4)n3)cc12 [Compound A-20]
3,8.30 to 11.00,FC(F)(F)c1c[nH]c2ncc(-c3ccc(C4CCOCC4)c([C@@H]4COCCN4)n3)cc12 [Compound A-18]
4,8.00 to 8.30,COc1cc(-c2cnc3[nH]cc(C)c3c2)cc(C2COCCN2)c1C1CCOCC1 (stereo not drawn) [Compound A-9]
5,8.30 to 11.00,Cc1cc(-c2cnc3[nH]cc(C)c3c2)cc(C2COCCN2)c1C1=CCOCC1 (stereo not drawn) [Compound A-12]
6,8.30 to 11.00,Cc1cc(-c2cnc3[nH]cc(C)c3c2)cc(C2COCCN2)c1C1CCOCC1 (stereo not drawn) [Compound A-5]
7,7.00 to 8.00,Cc1c[nH]c2ncc(-c3cc(C4COCCN4)c(C4CCOCC4)cc3F)cc12 (stereo not drawn) [Compound A-11]
8,8.30 to 11.00,COC(=O)c1c[nH]c2ncc(-c3ccc(C4CCOCC4)c(C4COCCN4)n3)cc12 (stereo not drawn) [Compound A-29]
9,7.00 to 8.00,CN(C)Cc1nc(-c2cnc3[nH]cc(C(F)(F)F)c3c2)ccc1C1CCOCC1 [Compound A-28]
10,8.30 to 11.00,Cc1cc(-c2cnc3[nH]cc(C(F)(F)F)c3c2)nc(C2COCCN2)c1C1CCOCC1 (stereo not drawn) [Compound A-27]
11,8.00 to 8.30,C[C@H]1CCCN1Cc1nc(-c2cnc3[nH]cc(C4CC4)c3c2)ccc1C1CCOCC1 [Compound A-24]
12,7.00 to 8.00,Cc1c[nH]c2ncc(-c3ccc(C4CCOCC4)c(C4COCCN4)c3F)cc12 (stereo not drawn) [Compound A-10]
13,8.30 to 11.00,COc1cc(-c2cnc3[nH]cc(C)c3c2)cc([C@@H]2COCCN2)c1C1CCOCC1 [Compound A-38]
14,8.30 to 11.00,Cc1cc(-c2cnc3[nH]cc(C)c3c2)cc([C@@H]2COCCN2)c1C1CCOCC1 [Compound A-36]
15,8.00 to 8.30,FC(F)(F)c1c[nH]c2ncc(-c3ccc(C4CCOCC4)c(CN4CCCC4)n3)cc12 [Compound A-23]
16,7.00 to 8.00,Cc1c[nH]c2ncc(-c3cc(C4COCCN4)c(C4CCOCC4)cc3Cl)cc12 (stereo not drawn) [Compound A-8]
